Source: patent publication US12516058B2, “Small-molecule compounds for controlling endosomal toll-like receptors and therapeutic agent for autoimmune diseases using same” (priority 2020, dated 2026)

Columns and labels:
TLR8 = target: T1, TLR8 (Homo sapiens, UniProt Q9NR97); assay: TNF-α secretion ELISA after TLR8 agonist TL8-506 in PMA-differentiated THP-1 cells; format: cell-based; details: SK01, TL8-506 4 h
T1 construct: endogenous in cells; host or cells: THP-1 (PMA-differentiated)
T1 sequence (Q9NR97 27-1041): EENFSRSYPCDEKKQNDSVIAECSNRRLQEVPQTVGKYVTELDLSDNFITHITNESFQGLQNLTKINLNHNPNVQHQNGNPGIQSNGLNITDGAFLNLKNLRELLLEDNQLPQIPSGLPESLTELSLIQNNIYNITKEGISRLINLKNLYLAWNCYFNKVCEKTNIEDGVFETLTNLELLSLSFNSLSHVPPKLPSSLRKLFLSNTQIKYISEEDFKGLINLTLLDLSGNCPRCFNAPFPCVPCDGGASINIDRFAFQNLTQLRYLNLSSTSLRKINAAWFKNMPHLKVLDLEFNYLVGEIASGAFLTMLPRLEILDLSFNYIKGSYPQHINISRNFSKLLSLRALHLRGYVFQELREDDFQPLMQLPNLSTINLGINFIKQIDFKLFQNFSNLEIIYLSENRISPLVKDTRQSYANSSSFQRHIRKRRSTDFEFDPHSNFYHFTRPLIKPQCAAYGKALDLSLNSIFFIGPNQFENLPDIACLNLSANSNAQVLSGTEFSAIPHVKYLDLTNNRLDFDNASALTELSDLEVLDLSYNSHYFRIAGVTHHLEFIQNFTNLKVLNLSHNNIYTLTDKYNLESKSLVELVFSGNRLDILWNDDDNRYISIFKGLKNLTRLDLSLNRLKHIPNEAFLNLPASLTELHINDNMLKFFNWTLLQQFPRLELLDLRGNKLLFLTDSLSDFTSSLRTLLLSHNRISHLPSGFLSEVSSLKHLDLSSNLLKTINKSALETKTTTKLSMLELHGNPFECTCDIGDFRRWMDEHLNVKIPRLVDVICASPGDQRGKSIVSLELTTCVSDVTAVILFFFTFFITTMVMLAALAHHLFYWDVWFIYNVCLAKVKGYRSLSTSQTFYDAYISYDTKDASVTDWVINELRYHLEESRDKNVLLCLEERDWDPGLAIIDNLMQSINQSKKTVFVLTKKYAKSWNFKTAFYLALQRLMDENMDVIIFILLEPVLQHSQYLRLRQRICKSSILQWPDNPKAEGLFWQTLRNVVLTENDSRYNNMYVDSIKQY
Protocol: FIGS. 5A to 5C show the inhibitory activities of SK01 on TLRs (TLR1/2, TLR2/6 and TLR4) exposed to the cell surface, and FIGS. 5D to 5G show the inhibitory activities of SK01 against endosome TLRs (TLR3, TLR7, TLR8 and TLR9), wherein RAW 264.7 cells were treated at predetermined concentrations with a negative control, a positive control (only ligand), additional positive control (ligand and 0.25% DMSO), or SK01 for 1 hour, and then stimulated with TLR-specific agonists for 4 or 24 hours (TLR3 only), a human monocytic cell line (THP-1) was used for TLR8 and THP-1 cells were treated with phorbol 12-myristate 13-acetate for 48 hours to induce cell differentiation, then treated with SK01 for 1 hour, and was treated with the TLR8 agonist TL8-506 for 4 hours, and the level of TNF-α secretion was measured by ELISA.

RAW 264.7 cells = assay: MTT cytotoxicity (LC50) and therapeutic index analysis; format: cell-based, mouse; details: 24 h, among the 13 selected compounds
Protocol: RAW 264.7 cells were seeded at a density of 2×10^4 cells/well in a 96-well cell culture plate and stabilized overnight in a humidified incubator. Each well was treated with a test compound or negative control (dimethyl sulfoxide; DMSO). The plates were allowed to stand in an incubator for 24 hours. Then, the medium of the 96-well culture dish was discarded and 500 μg/ml MTT solution (InvivoGen Ltd.) was added to each well. After incubation for 3 hours, the solution was removed and the residue was incubated in DMSO (Biosesang Co. Ltd., Korea) for 30 minutes to completely dissolve the formazan dye. The absorbance was measured at a wavelength of 595 nm with a microplate colorimetric reader and normalized based on the untreated control. All cultures were performed under the same conditions as in the cell culture described above.
In order to plot the concentration-dependent LC50 curves, treatment with the SK series ligands at different concentrations up to 200 μM (the highest concentration that could be treated within the level of 0.5% DMSO) was performed. Then, cell viability and toxicity response upon treatment with ligands were analyzed by MTT as described in Examples 1-3. Cell viability in each plot was normalized from negative control (100%; no treatment) to positive control (highest concentration of test-ligand), and LC50 was determined by non-linear regression (Graph Pad Prism 7.0). In order to plot the concentration-dependent IC50 curves, pre-treatment with the SK series ligands was performed at different concentrations up to 50 μM (twice the initial concentration). Cell responses mediated by TLR7 and TLR9 (levels of TNF-α secretion) were analyzed by ELISA as described in Examples 1-4. The cytokine level in each plot was normalized from negative control (non-treated) to positive control (treatment with ligand), and IC50 was determined by non-linear regression (Graph Pad Prism 7.0).
Then, LC50 and IC50 were applied to the following function to calculate TI.

| Structure (SMILES) | activity against TLR8 (TLR8) | toxicity (LC50) (RAW 264.7 cells) |
| --- | --- | --- |
| Cc1c(C)n(CCN(C)C)c2nc3c(c(N)c12)CCCCC3 [SK01, 1-(2-(dimethylamino)ethyl)-2,3-dimethyl-1,5,6,7,8,9-hexahydrocyclohepta[b]pyrrolo[3,2-e]pyridin-4-amine] | no activity |  |
| Cc1cc2c(N)c3c(nc2n1CCCN(C)C)CCCCCC3 [SK41, 1-(3-(dimethylamino)propyl)-2-methyl-5,6,7,8,9,10-hexahydro-1H-cycloocta[b]pyrrolo[3,2-e]pyridin-4-amine] |  | lower toxicity |
| COc1ccc2c(c1)c1c(N)c3c(nc1n2CCCN(C)C)CCCC3 [SK50, 6-(3-(dimethylamino)propyl)-9-methoxy-2,3,4,6-tetrahydro-1H-indolo[2,3-b]quinolin-11-amine] |  | lower toxicity |
| Cc1ccc2c(c1)c1c(N)c3c(nc1n2CCCN(C)C)CCCC3 [SK58, 6-(3-(dimethylamino)propyl)-9-methyl-2,3,4,6-tetrahydro-1H-indolo[2,3-b]quinolin-11-amine] |  | lower toxicity |
| COC(=O)c1ccc2c(c1)c1c(N)c3c(nc1n2CCCN(C)C)CCCC3 [SK64, Methyl 11-amino-6-(3-(dimethylamino)propyl)-2,3,4,6-tetrahydro-1H-indolo[2,3-b]quinolin-9-carboxylate] |  | lower toxicity |
